Read-outs that look alike come from different tables or passages of the source. Some results are limits rather than exact numbers.

Assay [1] deals with TNFα. The assay is described as follows: Cot Monocyte TNFα Cell Based Assay.
Assay [2] concerns the target Human Cot (Homo sapiens (Human), UniProt P41279). The assay is described as follows: High Throughput Cot Biochemical Assay.
Setting [3] is: Homo sapiens, Monocyte, read-out: EC50 TNF, LPS-stimulated human monocytes, TNFα.
The mark [4] stands for this setting: IC50 HTRF, Cot HTRF (TR-FRET) biochemical assay.
Where [5] appears, read: Homo sapiens, Monocyte, read-out: EC50 TNF, LPS-stimulated human monocytes, TNFα TR-FRET.
[6] abbreviates: IC50 HTRF, Cot HTRF (TR-FRET KinEASE) biochemical assay, 400 μM ATP.

Chain of Human Cot (P41279 30-397): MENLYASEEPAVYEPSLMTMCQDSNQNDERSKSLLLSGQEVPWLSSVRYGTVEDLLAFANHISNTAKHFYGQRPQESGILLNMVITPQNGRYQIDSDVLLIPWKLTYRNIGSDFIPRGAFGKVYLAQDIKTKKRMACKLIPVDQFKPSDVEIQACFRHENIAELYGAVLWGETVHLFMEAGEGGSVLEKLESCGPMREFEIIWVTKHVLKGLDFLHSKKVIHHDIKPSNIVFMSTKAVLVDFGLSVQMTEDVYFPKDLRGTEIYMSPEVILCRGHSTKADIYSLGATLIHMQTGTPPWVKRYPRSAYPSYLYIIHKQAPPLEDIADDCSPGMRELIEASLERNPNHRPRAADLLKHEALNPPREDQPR

In the case of `CC(C)(C)CNc1c(C#N)cnc2c(Cl)cc(N[C@H](c3cn(C4(C(F)F)CC4)nn3)c3cccc4[nH]ncc34)cc12` [Example 500, (S)-8-chloro-6-(((1-(1-(difluoromethyl- )cyclopropyl)-1H-1,2,3-triazol-4-yl)(1H-indazol-4-yl)methyl)amino)-4-(neopentylamino)quinoline-3-carbonitrile], in assay [1] (read-out: EC50 TNF, LPS-stimulated human monocytes, TNFα), the EC50 – broadly, the midpoint of the concentration-response curve – turned out to be 321 nM. In assay [2] (read-out: IC50 HTRF, Cot HTRF (TR-FRET) biochemical assay), the IC50 (usually the concentration that inhibits the measured activity by half) came to 8 nM.

`CC(C)n1cc([C@@H](Nc2cc(Cl)c3ncc(C#N)c(N[C@H](c4ccccc4)C(C)(C)O)c3c2)c2cccnc2)nn1` [Example 202, 8-chloro-4-(((R)-2-hydroxy-2-methyl-1-phenylpropyl)amino)-6-(((S)-(1-isopropyl-1H-1,2,3-triazol-4-yl)(pyridin-3-yl)methyl)amino)quinoline-3-carbonitrile]: in assay [1] (setting [3]), the EC50 was over 10000 nM. The half-inhibitory concentration (IC50) in assay [2] (setting [4]) was over 10000 nM.

Turning to `Cc1nc(F)ccc1[C@H](Nc1cc(C#N)c2ncc(C#N)c(NCC(C)(C)C)c2c1)c1cn(Cc2c(F)cccc2F)nn1` [Example 601, (S)-6-(((1-(2,6-difluorobenzyl)-1H-1,2,3-triazol-4-yl)(6-fluoro-2-methylpyridin-3-yl)methyl)amino)-4-(neopentylamino)quinoline-3,8-dicarbonitrile], in assay [1] (setting [3]), the EC50 came out at 32 nM. The IC50 in assay [2] (setting [4]) was 4 nM.

For `COc1c([C@@H](Nc2cc(Cl)c3ncc(C#N)c(NCC(C)(C)C)c3c2)c2ccc(F)nc2C)nnn1C1CC1` [Example 967, (S)-8-chloro-6-(((1-cyclopropyl-5-methoxy-1H-1,2,3-triazol-4-yl)(6-fluoro-2-methylpyridin-3-yl)methyl)amino)-4-(neopentylamino)quinoline-3-carbonitrile], the EC50 in assay [1] (setting [5]) is 94 nM. In assay [2] (setting [6]), this molecule gave a 50% inhibitory concentration (IC50) of 2 nM.

For `Cc1nc(F)ccc1[C@H](Nc1cc(Cl)c2ncc(C#N)c(NCC(C)(C)C)c2c1)c1cn(C2(C(=O)O)CC(F)(F)C2)nn1` [Example 624, (S)-1-(4-(((8-chloro-3-cyano-4-(neopentylamino)quinolin-6-yl)amino)(6-fluoro-2-methylpyridin-3-yl)methyl)-1H-1,2,3-triazol-1-yl)-3,3-difluorocyclobutane-1-carboxylic acid], the EC50 in assay [1] (setting [3]) came out at 1000 nM. Also, 11 nM corresponded to half-maximal inhibition in assay [2] (setting [4]) (IC50).

On to `Cc1nc(F)ccc1[C@H](Nc1cc(C#N)c2ncc(C#N)c(NCC(C)(C)C)c2c1)c1cn(C2(CO)CC2)nn1` [Example 610, (S)-6-(((6-fluoro-2-methylpyridin-3-yl)(1-(1-(hydroxymethyl)cyclopropyl)-1H-1,2,3-triazol-4-yl)methyl)amino)-4-(neopentylamino)quinoline-3,8-dicarbonitrile], for which the EC50 in assay [1] (setting [3]) turned out to be 199 nM. Moreover, in assay [2] (setting [4]), it took 2 nM to reach half-maximal inhibition (IC50).

On to `N#Cc1cnc2c(Cl)cc(N[C@H](c3c[nH]nn3)c3csc4c3CCNC4)cc2c1Nc1ccc(F)c(Cl)c1` [Example 275, (S)-8-chloro-4-((3-chloro-4-fluorophenyl)amino)-6-(((4,5,6,7-tetrahydrothieno[2,3-c]pyridin-3-yl)(1H-1,2,3-triazol-4-yl)methyl)-amino)quinoline-3-carbonitrile], for which the EC50 in assay [1] (setting [3]) was 2330 nM. This molecule also gave an IC50 in assay [2] (setting [4]) of 7 nM.

Consider `Cc1nc(F)ccc1[C@H](Nc1cc(Cl)c2ncc(C#N)c(NCC(C)(C)C)c2c1)c1cn(C2CC2)nn1` [Example 716, (S)-8-chloro-6-(((1-cyclopropyl-1H-1,2,3-triazol-4-yl)(6-fluoro-2-methylpyridin-3-yl)methyl)amino)-4-(neopentylamino)quinoline-3-carbonitrile], for which the half-maximal effective concentration (EC50) in assay [1] (setting [3]) is 54 nM. In addition, the IC50 in assay [2] (setting [4]) amounted to 2 nM.

`CC(C)(CNc1c(C#N)cnc2c(C#N)cc(N[C@H](c3cn(C4(C5CC5)CC4)nn3)c3cccc4ncccc34)cc12)C(F)(F)F` [Example 896, (S)-6-(((1-([1,1′-bi(cyclopropan)]-1-yl)-1H-1,2,3-triazol-4-yl)(quinolin-5-yl)methyl)amino)-4-((3,3,3-trifluoro-2,2-dimethylpropyl)amino)quinoline-3,8-dicarbonitrile]: the EC50 in assay [1] (setting [5]) was found to be 30 nM. Besides, in assay [2] (setting [6]), the IC50 came to 3 nM.

On to `Cc1nc(F)ccc1[C@H](Nc1cc(C#N)c2ncc(C#N)c(NCC3C(C)(C)C3(C)C)c2c1)c1cn(C2(C(F)F)CC2)nn1` [Example 845, (S)-6-(((1-(1-(difluoromethyl)-cyclopropyl)-1H-1,2,3-triazol-4-yl)(6-fluoro-2-methylpyridin-3-yl)methyl)amino)-4-(((2,2,3,3-tetramethylcyclopropyl)methyl)-amino)quinoline-3,8-dicarbonitrile], for which the EC50 in assay [1] (setting [5]) was 1000 nM. The same molecule gave an IC50 in assay [2] (setting [6]) of 20 nM.

In the case of `Cc1nc(F)ccc1[C@H](Nc1cc(Cl)c2ncc(C#N)c(NCC(C)(C)C)c2c1)c1cn(C2(C)CC2)nn1` [Example 480, (S)-8-chloro-6-(((6-fluoro-2-methylpyridin-3-yl)(1-(1-methylcyclopropyl)-1H-1,2,3-triazol-4-yl)methyl)amino)-4-(neopentylamino)-quinoline-3-carbonitrile], the EC50 in assay [1] (setting [3]) amounted to 60 nM. 2 nM corresponded to half-maximal inhibition in assay [2] (setting [4]) (IC50).

As to `Cc1ncsc1[C@H](Nc1cc(Cl)c2ncc(C#N)c(Nc3ccc(Cl)c(Cl)c3F)c2c1)c1cn(C2CCN(C(C)(C)C)CC2)nn1` [Example 236, (R)-6-(((1-(1-(tert-butyl)piperidin-4-yl)-1H-1,2,3-triazol-4-yl)(4-methylthiazol-5-yl)methyl)amino)-8-chloro-4-((3,4-dichloro-2-fluorophenyl)amino)quinoline-3-carbonitrile], the EC50 in assay [1] (setting [3]) stood at 172 nM. The molecule also yielded a half-inhibitory concentration (IC50) in assay [2] (setting [4]) of 9 nM.

Turning to `CC(C)(CNc1c(C#N)cnc2c(Cl)cc(N[C@H](c3cn(C4(C(F)F)CC4)nn3)c3cccc4c(=O)[nH]ccc34)cc12)C(F)(F)F` [Example 726, (S)-8-chloro-6-(((1-(1-(difluoromethyl)cyclopropyl)-1H-1,2,3-triazol-4-yl)(1-oxo-1,2-dihydroisoquinolin-5-yl)methyl)amino)-4-((3,3,3-trifluoro-2,2-dimethylpropyl)amino)quinoline-3-carbonitrile], in assay [1] (setting [3]), the EC50 stood at 127 nM. In assay [2] (setting [4]), the IC50 was found to be 4 nM.

In the case of `Cc1nc(F)ccc1[C@H](Nc1cc(Cl)c2ncc(C#N)c(NCC(C)(C)C)c2c1)c1cn(C2(C(=O)N(C)C)CC2)nn1` [Example 553, (S)-1-(4-(((8-chloro-3-cyano-4-(neopentyl-amino)quinolin-6-yl)amino)(6-fluoro-2-methylpyridin-3-yl)methyl)-1H-1,2,3-triazol-1-yl)-N,N-dimethylcyclopropane-1-carboxamide], the EC50 in assay [1] (setting [3]) was 64 nM. The midpoint of inhibition in assay [2] (setting [4]), the IC50, lay at 3 nM.

As for `CC(C)(C)CNc1c(C#N)cnc2c(Cl)cc(N[C@H](c3cn(C4(C(F)(F)F)CC4)nn3)c3cccc4c(=O)n(CC(F)(F)F)ccc34)cc12` [Example 771, (S)-8-chloro-4-(neopentylamino)-6-(((1-oxo-2-(2,2,2-trifluoroethyl)-1,2-dihydroisoquinolin-5-yl)(1-(1-(trifluoromethyl)-cyclopropyl)-1H-1,2,3-triazol-4-yl)methyl)amino)quinoline-3-carbonitrile], the EC50 in assay [1] (setting [3]) is 293 nM. In assay [2] (setting [4]), this molecule registered an IC50 of 4 nM.

As for `CC(C)(C)n1cc([C@@H](Nc2cc(Cl)c3ncc(C#N)c(Nc4cnc(F)c(F)c4)c3c2)c2cccnc2)nn1` [Example 198, (S)-6-(((1-(tert-butyl)-1H-1,2,3-triazol-4-yl)(pyridin-3-yl)methyl)amino)-8-chloro-4-((5,6-difluoropyridin-3-yl)amino)quinoline-3-carbonitrile], in assay [1] (setting [3]), the EC50 stood at 982 nM. This molecule also returned an IC50 in assay [2] (setting [4]) of 17 nM.

`Cc1nc(F)ccc1[C@H](Nc1cc(Cl)c2ncc(C#N)c(NCC(C)(C)C)c2c1)c1cn(C2(C(=O)N3CCCC3)CC2)nn1` [Example 554, (S)-8-chloro-6-(((6-fluoro-2-methylpyridin-3-yl)(1-(1-(pyrrolidine-1-carbonyl)cyclopropyl)-1H-1,2,3-triazol-4-yl)methyl)amino)-4-(neopentylamino)quinoline-3-carbonitrile]: the EC50 in assay [1] (setting [3]) turned out to be 151 nM. Further, in assay [2] (setting [4]), half-maximal inhibition (IC50) required 5 nM.

As to `Cc1ncsc1[C@H](Nc1cc(Cl)c2ncc(C#N)c(N[C@H](C)c3ccccc3)c2c1)c1cn(C(C)C)nn1` [Example 239, 8-chloro-6-(((R)-(1-isopropyl-1H-1,2,3-triazol-4-yl)(4-methylthiazol-5-yl)methyl)amino)-4-(((R)-1-phenylethyl)amino)quinoline-3-carbonitrile], in assay [1] (setting [3]), the EC50 came to 928 nM. Besides, in assay [2] (setting [4]), the IC50 turned out to be 16 nM.

With `CC(C)(C)CNc1c(C#N)cnc2c(C#N)cc(N[C@H](c3cn(C4(c5ccncc5)CC4)nn3)c3cccc4ncsc34)cc12` [Example 464, (S)-6-((benzo[d]thiazol-7-yl(1-(1-(pyridin-4-yl)cyclopropyl)-1H-1,2,3-triazol-4-yl)methyl)amino)-4-(neopentylamino)-quinoline-3,8-dicarbonitrile], in assay [1] (setting [3]), the EC50 stood at 16 nM. The same molecule gave an IC50 in assay [2] (setting [4]) of 1 nM.

In the case of `Cn1ccc2c([C@H](Nc3cc(Cl)c4ncc(C#N)c(NCC(C)(C)C(F)(F)F)c4c3)c3cn(C4(C(F)(F)F)CC4)nn3)cccc2c1=O` [Example 780, (S)-8-chloro-6-(((2-methyl-1-oxo-1,2-dihydroisoquinolin-5-yl)(1-(1-(trifluoromethyl)-cyclopropyl)-1H-1,2,3-triazol-4-yl)methyl)amino)-4-((3,3,3-trifluoro-2,2-dimethylpropyl)amino)-quinoline-3-carbonitrile], the EC50 in assay [1] (setting [3]) was determined as 52 nM. The molecule further displayed an IC50 in assay [2] (setting [4]) of 5 nM.

`CC(C)(C)CNc1c(C#N)cnc2c(Br)cc(N[C@H](c3cn(C4CC4)nn3)c3cccc4nc(N)sc34)cc12` [Example 70, (S)-6-(((2-aminobenzo[d]thiazol-7-yl)(1-cyclopropyl-1H-1,2,3-triazol-4-yl)methyl)amino)-8-bromo-4-(neopentylamino)quinoline-3-carbonitrile]: in assay [1] (setting [3]), the EC50 was 804 nM. Further, the IC50 in assay [2] (setting [4]) was 19 nM.

These data come from patent US11066414B2, “Cot modulators and methods of use thereof” (Gilead Sciences, Inc., priority 2015, dated 2021).
